# Patent US7915267B2, “Heterocyclic amide compound and use thereof” (Takeda Pharmaceutical Company Limited, priority 2005, dated 2011)
# Molecular target: T1, MMP-13 (Homo sapiens, UniProt P45452)
# T1 construct: purchased GenzymeTechne
# Assay: MMP-13 inhibitory activity (fluorogenic substrate Cy3-PLGLK(Cy5Q)AR-NH2 enzyme assay)
# Type: biochemical
# Details: compound 1 μM; 37° C., 40 min; APMA-activated MMP-13 precursor; read-out: MMP-13 inhibitory rate (%) at 1 μM
# Experimental: To 10 μg of MMP-13 precursor (GenzymeTechne) was added 1 ml of assay buffer (50 mM Tris-HCl (pH 7.5), 10 mM CaCl2, 150 mM NaCl, 0.05% Brij-35), and 4-aminophenylmercuric acid (Sigma) was added to the final concentration of 1 mM. The MMP-13 precursor was activated by incubating at 37° C. for 2 hr.
# In a 96 well black plate (Corning), to 6.3 ng/ml of MMP-13 solution (49 μl) diluted with assay buffer was added the test compound (1 μl) diluted with dimethyl sulfoxide (DMSO) and 620 nM Cy3-PLGLK(Cy5Q)AR-NH2 (50 μl, synthesized by Amersham Biosciences) in assay buffer was added to start the enzyme reaction. After incubation at 37° C. for 40 min, 500 mM EDTA solution (6 μl) was added to stop the reaction. For measurement, Farcyte (Amersham Biosciences) was used to measure at excitation wavelength 535 nm and measurement wavelength 595 nm.
# T: value of well with addition of DMSO instead of test compound
# C: value of well with addition of DMSO instead of test compound and addition of EDTA solution before addition of substrate solution
# X: value of well with addition of test compound
row,Compound,inhibition at 1 µM
1,"N#Cc1ccc2nc(C(=O)NCc3cccc(NC(=O)CCc4nc[nH]n4)c3)[nH]c(=O)c2c1 [Example 32, 6-cyano-4-oxo-N-[(3-{[3-(1H-1,2,4-triazol-3-yl)propanoyl]amino}phenyl)methyl]-3,4-dihydroquinazoline-2-carboxamide]",98%
2,"N#Cc1ccc2nc(C(=O)NCc3ccnc(OCCCc4nc[nH]n4)c3)[nH]c(=O)c2c1 [Example 23, 6-cyano-4-oxo-N-[(2-{[3-(1H-1,2,4-triazol-3-yl)propyl]oxy}pyridin-4-yl)methyl]-3,4-dihydroquinazoline-2-carboxamide]",96%
3,"O=C(NCc1cccc(OCCOc2nc[nH]n2)c1)c1nc2ccc(F)c(F)c2c(=O)[nH]1 [Example 44, 5,6-difluoro-4-oxo-N-[(3-{[2-(1H-1,2,4-triazol-3-yloxy)ethyl]oxy}phenyl)methyl]-3,4-dihydroquinazoline-2-carboxamide]",98%
4,"O=C(O)c1ccc(OCCn2ncc3nc(C(=O)NCc4cccc(OCCOc5nc[nH]n5)c4)[nH]c(=O)c32)cc1 [Example 48, 4-({2-[7-oxo-5-({[(3-{[2-(1H-1,2,4-triazol-3-yloxy)ethyl]oxy}phenyl)methyl]amino}carbonyl)-6,7-dihydro-1H-pyrazolo[4,3-d]pyrimidin-1-yl]ethyl}oxy)benzoic acid]",99%
5,"O=C(NCc1cccc(OCCOc2nc[nH]n2)c1)c1nc2scc(-c3ccco3)c2c(=O)[nH]1 [Example 28, 5-furan-2-yl-4-oxo-N-[(3-{[2-(1H-1,2,4-triazol-3-yloxy)ethyl]oxy}phenyl)methyl]-3,4-dihydrothieno[2,3-d]pyrimidine-2-carboxamide]",96%
6,"N#Cc1ccc2nc(C(=O)NCc3cccc(NC(=O)c4nc[nH]n4)c3)[nH]c(=O)c2c1 [Example 38, 6-cyano-4-oxo-N-({3-[(1H-1,2,4-triazol-3-ylcarbonyl)amino]phenyl}methyl)-3,4-dihydroquinazoline-2-carboxamide]",85%
7,"N#Cc1ccc2nc(C(=O)NCc3cccc(CNC(=O)c4nc[nH]n4)c3)[nH]c(=O)c2c1 [Example 36, 6-cyano-4-oxo-N-[(3-{[(1H-1,2,4-triazol-3-ylcarbonyl)amino]methyl}phenyl)methyl]-3,4-dihydroquinazoline-2-carboxamide]",97%
8,"O=C(NCc1cccc(OCCOc2nc[nH]n2)c1)c1nc2ccc(F)c(NCc3cccc(OCCOc4nc[nH]n4)c3)c2c(=O)[nH]1 [Example 45, 6-fluoro-4-oxo-N-[(3-{[2-(1H-1,2,4-triazol-3-yloxy)ethyl]oxy}phenyl)methyl]-5-{[(3-{[2-(1H-1,2,4-triazol-3-yloxy)ethyl]oxy}phenyl)methyl]amino}-3,4-dihydroquinazoline-2-carboxamide]",97%
9,"N#Cc1ccc2nc(C(=O)NCc3cccc(COCc4nc[nH]n4)c3)[nH]c(=O)c2c1 [Example 31, 6-cyano-4-oxo-N-[(3-{[(1H-1,2,4-triazol-3-ylmethyl)oxy]methyl}phenyl)methyl]-3,4-dihydroquinazoline-2-carboxamide]",97%
10,"COC(=O)c1ccc(OCCn2ncc3nc(C(=O)NCc4cccc(OCCOc5nc[nH]n5)c4)[nH]c(=O)c32)cc1 [Example 47, methyl 4-({2-[7-oxo-5-({[(3-{[2-(1H-1,2,4-triazol-3-yloxy)ethyl]oxy}phenyl)methyl]amino)carbonyl}-6,7-dihydro-1H-pyrazolo[4,3-d]pyrimidin-1-yl]ethyl}oxy)benzoate]",98%
11,"Cc1csc2nc(C(=O)NCc3ccnc(OCCSc4nc[nH]n4)c3)[nH]c(=O)c12 [Example 21, 5-methyl-4-oxo-N-[(2-{[2-(1H-1,2,4-triazol-3-ylthio)ethyl]oxy}pyridin-4-yl)methyl]-3,4-dihydrothieno[2,3-d]pyrimidine-2-carboxamide]",100%
12,"Cc1csc2nc(C(=O)NCc3ccnc(OCCCc4nc[nH]n4)c3)[nH]c(=O)c12 [Example 24, 5-methyl-4-oxo-N-[(2-{[3-(1H-1,2,4-triazol-3-yl)propyl]oxy}pyridin-4-yl)methyl]-3,4-dihydrothieno[2,3-d]pyrimidine-2-carboxamide]",93%
13,"O=C(NCc1ccnc(OCCCc2nc[nH]n2)c1)c1nc2ccccc2c(=O)[nH]1 [Example 22, 4-oxo-N-[(2-{[3-(1H-1,2,4-triazol-3-yl)propyl]oxy}pyridin-4-yl)methyl]-3,4-dihydroquinazoline-2-carboxamide]",95%
14,"N#CCc1csc2nc(C(=O)NCc3cccc(OCCOc4nc[nH]n4)c3)[nH]c(=O)c12 [Example 29, 5-(cyanomethyl)-4-oxo-N-[(3-{[2-(1H-1,2,4-triazol-3-yloxy)ethyl]oxy}phenyl)methyl]-3,4-dihydrothieno[2,3-d]pyrimidine-2-carboxamide]",98%
15,"O=C(O)c1ccc(COCc2csc3nc(C(=O)NCc4ccnc(OCCCc5nc[nH]n5)c4)[nH]c(=O)c23)cc1 [Example 42, 4-[({[4-oxo-2-({[(2-{[3-(1H-1,2,4-triazol-3-yl)propyl]oxy}pyridin-4-yl)methyl]amino}carbonyl)-3,4-dihydrothieno[2,3-d]pyrimidin-5-yl]-methyl}oxy)methyl]benzoic acid]",98%

# Further lines, results first:
row,inhibition at 1 µM,Compound
1,98%,"O=C(NCc1cccc(OCCSc2nc[nH]n2)c1)c1nc2cccc(F)c2c(=O)[nH]1 [Example 10, 5-fluoro-4-oxo-N-[(3-{[2-(1H-1,2,4-triazol-3-ylthio)ethyl]oxy}phenyl)methyl]-3,4-dihydroquinazoline-2-carboxamide]"
2,97%,"N#Cc1ccc2nc(C(=O)NCc3cccc(OCCCCSc4nc[nH]n4)c3)[nH]c(=O)c2c1 [Example 17, 6-cyano-4-oxo-N-[(3-{[4-(1H-1,2,4-triazol-3-ylthio)butyl]oxy}phenyl)methyl]-3,4-dihydroquinazoline-2-carboxamide]"
3,97%,"Cc1ccc2nc(C(=O)NCc3cccc(OCCSc4nc[nH]n4)c3)[nH]c(=O)c2c1 [Example 6, 6-methyl-4-oxo-N-[(3-{[2-(1H-1,2,4-triazol-3-ylthio)ethyl]oxy}phenyl)methyl]-3,4-dihydroquinazoline-2-carboxamide]"
4,98%,"Cc1cccc2nc(C(=O)NCc3cccc(OCCSc4nc[nH]n4)c3)[nH]c(=O)c12 [Example 9, 5-methyl-4-oxo-N-[(3-{[2-(1H-1,2,4-triazol-3-ylthio)ethyl]oxy}phenyl)methyl]-3,4-dihydroquinazoline-2-carboxamide]"
5,93%,"O=C(NCc1ccnc(OCCSc2nc[nH]n2)c1)c1nc2ccccc2c(=O)[nH]1 [Example 19, 4-oxo-N-[(2-{[2-(1H-1,2,4-triazol-3-ylthio)ethyl]oxy}pyridin-4-yl)methyl]-3,4-dihydroquinazoline-2-carboxamide]"
6,99%,"COc1ccc2nc(C(=O)NCc3cccc(OCCSc4nc[nH]n4)c3)[nH]c(=O)c2c1 [Example 4, 6-(methyloxy)-4-oxo-N-[(3-{[2-(1H-1,2,4-triazol-3-ylthio)ethyl]oxy}phenyl)methyl]-3,4-dihydroquinazoline-2-carboxamide]"
7,89%,"N#Cc1ccc2nc(C(=O)NCc3ccnc(OCCSc4nc[nH]n4)c3)[nH]c(=O)c2c1 [Example 20, 6-cyano-4-oxo-N-[(2-{[2-(1H-1,2,4-triazol-3-ylthio)ethyl]oxy}pyridin-4-yl)methyl]-3,4-dihydroquinazoline-2-carboxamide]"
8,98%,"O=C(NCc1cccc(OCCSc2nc[nH]n2)c1)c1nc2ccc(F)cc2c(=O)[nH]1 [Example 3, 6-fluoro-4-oxo-N-[(3-{[2-(1H-1,2,4-triazol-3-ylthio)ethyl]oxy}phenyl)methyl]-3,4-dihydroquinazoline-2-carboxamide]"
9,97%,"N#Cc1ccc2nc(C(=O)NCc3cccc(OCCOc4nc[nH]n4)c3)[nH]c(=O)c2c1 [Example 25, 6-cyano-4-oxo-N-[(3-{[2-(1H-1,2,4-triazol-3-yloxy)ethyl]oxy}phenyl)methyl]-3,4-dihydroquinazoline-2-carboxamide]"
10,99%,"O=C(NCc1cccc(OCCSc2nc[nH]n2)c1)c1nc2ccc(F)c(F)c2c(=O)[nH]1 [Example 8, 5,6-difluoro-4-oxo-N-[(3-{[2-(1H-1,2,4-triazol-3-ylthio)ethyl]oxy}phenyl)methyl]-3,4-dihydroquinazoline-2-carboxamide]"
11,97%,"Cc1cc2c(=O)[nH]c(C(=O)NCc3cccc(OCCSc4nc[nH]n4)c3)nc2s1 [Example 13, 6-methyl-4-oxo-N-[(3-{[2-(1H-1,2,4-triazol-3-ylthio)ethyl]oxy}phenyl)methyl]-3,4-dihydrothieno[2,3-d]pyrimidine-2-carboxamide]"
12,98%,"N#Cc1ccc2nc(C(=O)NCc3cccc(OCCCSc4nc[nH]n4)c3)[nH]c(=O)c2c1 [Example 15, 6-cyano-4-oxo-N-[(3-{[3-(1H-1,2,4-triazol-3-ylthio)propyl]oxy}phenyl)methyl]-3,4-dihydroquinazoline-2-carboxamide]"
13,97%,"O=C(NCc1cccc(OCCSc2nc[nH]n2)c1)c1nc2ccc(Cl)cc2c(=O)[nH]1 [Example 5, 6-chloro-4-oxo-N-[(3-{[2-(1H-1,2,4-triazol-3-ylthio)ethyl]oxy}phenyl)methyl]-3,4-dihydroquinazoline-2-carboxamide]"
